{"source": "patent US20200253870A1", "about": "“A LDV LIPOSOMAL FORMULATION OF PHOTO SYSTEM-I FOR TREATMENT OF CANCER” (priority 2016, published 2020)", "key": {"B16F10 cells [1]": {"system": "B16F10 cells", "assay": "MTT cell viability assay in B16F10 cells", "format": "cell-based", "settings": "Mus musculus, B16-F10, B16F10, 15.62 μg/mL, Table 5 comparison, 24 h", "procedure": "B16F10 and A375 cells were treated with the LDV liposomal formulation of PSI and cellular viability was checked using MTT assay. It is a colorimetric assay where MTT (Methyl thiazolyl diphenyl-tetrazolium bromide), a yellow tetrazole compound, is reduced to purple formazan by cellular reductase enzymes of live cells. Dead cells cannot do this type of reduction and are not able to develop the purple colour. […] The live cells are called as viable cells and it is denoted as % viability in the Y-axis. On the X-axis four different concentrations of the said formulation was plotted. The absorbance at 550 nm was measured and the % viability was calculated.\n(§1) Cells were seeded at a density of 10000 cells per well in 96-well plate before 24 hours of treatment. Cells were treated with different concentrations of LDV liposomal formulation of PSI. After that cells were incubated for 48 hours in complete media. MTT solution (5 mg/mL) was prepared in PBS. 50 μL of MTT solution was added into each well and incubated at 37° C. for 4 hours. Purple colored formazan was dissolved in 1:1 (v/v) DMSO/MeOH and absorbances of the wells were measured at 550 nm by micro-plate ELISA reader. The % viability from this absorbance values was calculated."}, "A375 cells [2]": {"system": "A375 cells", "assay": "cells", "format": "cell-based, human", "settings": "A-375, MTT", "procedure": "B16F10 and A375 cells were treated with the LDV liposomal formulation of PSI and cellular viability was checked using MTT assay. […] Therefore an idea about the amount of cells lived after the treatment of LDV liposomal formulation of PSI with respect to those cells (control) which are not treated with the peptide. […] The absorbance at 550 nm was measured and the % viability was calculated.\nas §1\nA375 cells were seeded at a density of 10000 cells per well in 96-well plate before 24 hours of treatment. Cells were treated with LDV-liposome-PSI and doxorubicin for 24 hours. MTT assay as described was performed and IC50 value was calculated using CompuSyn software."}, "A375 cells [3]": {"system": "A375 cells", "assay": "FACS analysis for apoptosis (annexin V/PI) in A375 cells", "format": "cell-based, human", "settings": "A375, 15.62 μg/mL", "method": "Furthermore FACS analysis using apoptosis detection kit has been performed. FACS analysis, have ascertained that the LDV liposomal formulation of PSI caused apoptotic death of B16F10 and A375 cells (FIGS. 4 and 5). Inventors have performed apoptosis assay using annexin V/PI in B16F10 and A375 cell to compare the amount of apoptotic death of cancer cell due to application of 15.62 μg/mL concentration of LDV liposomal PSI and doxorubicin. Inventors have found large amount of apoptotic death of both the cancer cells (A375 and B16F10) due to LDV liposomal PSI.\nFluorescence activated cell sorting (FACS) experiment was performed for studying the type of cell death. The cell death pathway of B16F10 cells in FACS using apoptosis detection kit was studied. Cells were seeded at a density of ˜5×10^5 cells per well in a 6-well plate before 24 hours of treatment. The cells were treated with solutions of LDV liposomal formulation of PSI. After that cells were incubated for 48 hours. Cells were trypsinized and washed with PBS by help of centrifugation. […] After this another 400 μL of assay buffer was added to the cells and these total 500 μL of cell solution was analyzed by FACS. The emission of Annexin V and PI was detected in the FITC and PI channels of BD LSRFORTESA flow cytometer using emission filters at 530 and 610 nm respectively. […] Data was analyzed using FACS DIVA software. […]"}, "B16F10 cells [4]": {"system": "B16F10 cells", "assay": "FACS analysis for apoptosis (annexin V/PI) in B16F10 cells", "format": "cell-based, mouse", "settings": "B16F10, 15.62 μg/mL, 48 hours", "method": "Fluorescence activated cell sorting (FACS) experiment was performed for studying the type of cell death. The cell death pathway of B16F10 cells in FACS using apoptosis detection kit was studied. Cells were seeded at a density of ˜5×10^5 cells per well in a 6-well plate before 24 hours of treatment. The cells were treated with solutions of LDV liposomal formulation of PSI. After that cells were incubated for 48 hours. Cells were trypsinized and washed with PBS by help of centrifugation. Cells were incubated in dark at 37° C. for 30 minutes with a 100 μL solution of assay buffer containing 2.5 μL of Propidium iodide (PI) and 2.5 μL of annexin V. All these reagents were supplied along with the apoptosis detection kit (Santa Cruz Biotechnology). The stock concentration of Propidium iodide and annexin V was 50 μg/mL and 200 μg/mL respectively. After this another 400 μL of assay buffer was added to the cells and these total 500 μL of cell solution was analyzed by FACS. The emission of Annexin V and PI was detected in the FITC and PI channels of BD LSRFORTESA flow cytometer using emission filters at 530 and 610 nm respectively. In the represented data, cells in the Q1, Q2 and Q4 quadrants are regarded as necrotic, late apoptotic and early apoptotic cells respectively. Cells in the Q3 quadrant are regarded as normal cells or healthy cells. Data was analyzed using FACS DIVA software. […]"}, "[5]": {"assay": "MTT cell viability assay in WI38 normal cells", "format": "cell-based", "settings": "human, WI38, 15.62 μg/mL, Table 5 comparison", "method": "B16F10 and WI38 cells were seeded in a 96-well plate at density of 10000 cells per well before 24 h of treatment. Cells were treated with LDV liposomal PSI and normal liposomal PSI separately in complete media for 24 h. After 24 h, MTT assay was performed. […] In case of normal liposomal PSI, inventors have found similar amount of cell viability for both B16F10 and WI38 cells.\nB16F10 and A375 cells were treated with the LDV liposomal formulation of PSI and cellular viability was checked using MTT assay. It is a colorimetric assay where MTT (Methyl thiazolyl diphenyl-tetrazolium bromide), a yellow tetrazole compound, is reduced to purple formazan by cellular reductase enzymes of live cells. Dead cells cannot do this type of reduction and are not able to develop the purple colour. Therefore an idea about the amount of cells lived after the treatment of LDV liposomal formulation of PSI with respect to those cells (control) which are not treated with the peptide. The live cells are called as viable cells and it is denoted as % viability in the Y-axis. On the X-axis four different concentrations of the said formulation was plotted. The absorbance at 550 nm was measured and the % viability was calculated.\n% Viability=[(A550Treated Cells−A550 Backgrounds)/(A550Untreated Cells−A550 Backgrounds)]*100."}}}
{"smiles": "COc1cccc2c1C(=O)c1c(O)c3c(c(O)c1C2=O)C[C@@](O)(C(=O)CO)C[C@@H]3O[C@H]1C[C@H](N)[C@H](O)[C@H](C)O1", "note": "[Doxorubicin]", "values": [{"measurement": "viability at 15.62 µg/mL", "setting": "B16F10 cells [1]", "value": 19.9, "unit": "%"}, {"measurement": "IC50", "setting": "A375 cells [2]; A375, Melanoma (human), CompuSyn software", "value": 10.2, "unit": "µg/mL"}, {"measurement": "viability at 3.12 µg/mL", "setting": "A375 cells [2]; Homo sapiens, A375, 3.12 μg/mL", "value": 94, "unit": "%"}, {"measurement": "viability at 6.25 µg/mL", "setting": "A375 cells [2]; Homo sapiens, A375, 6.25 μg/mL", "value": 59.2, "unit": "%"}, {"measurement": "viability at 12.5 µg/mL", "setting": "A375 cells [2]; Homo sapiens, A375, 12.5 μg/mL", "value": 31.5, "unit": "%"}, {"measurement": "viability at 25 µg/mL", "setting": "A375 cells [2]; Homo sapiens, A375, 25 μg/mL", "value": 11.7, "unit": "%"}, {"measurement": "viability at 50 µg/mL", "setting": "A375 cells [2]; Homo sapiens, A375, 50 μg/mL", "value": 4.9, "unit": "%"}, {"measurement": "viability at 100 µg/mL", "setting": "A375 cells [2]; Homo sapiens, A375, 100 μg/mL", "value": 6.09, "unit": "%"}, {"measurement": "Amount of Apoptotic death of cancer cell (%)", "setting": "A375 cells [3]", "value": 100, "unit": "%"}, {"measurement": "Amount of Apoptotic death of cancer cell (%)", "setting": "B16F10 cells [4]", "value": 99.9, "unit": "%"}, {"measurement": "viability at 24 h, 15.62 μg/mL", "setting": "[5]", "value": 65.2, "unit": "%"}]}
